Assay [1] concerns the target T1, Human Neuropeptide Y2 Receptor (Homo sapiens, UniProt P49146).
T1 construct: purchased CHEMICON HTS066M
T1 sequence (P49146 1-381): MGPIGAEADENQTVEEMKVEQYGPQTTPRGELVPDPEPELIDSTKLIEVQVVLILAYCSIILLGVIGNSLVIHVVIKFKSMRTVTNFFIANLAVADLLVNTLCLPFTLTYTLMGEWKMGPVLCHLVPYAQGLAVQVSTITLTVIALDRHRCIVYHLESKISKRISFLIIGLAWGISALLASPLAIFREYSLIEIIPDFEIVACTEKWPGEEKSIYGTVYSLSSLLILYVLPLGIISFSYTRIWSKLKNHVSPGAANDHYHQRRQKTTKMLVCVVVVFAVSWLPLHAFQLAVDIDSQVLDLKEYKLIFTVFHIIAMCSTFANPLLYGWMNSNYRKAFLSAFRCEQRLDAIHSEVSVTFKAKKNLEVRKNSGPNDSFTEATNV
Kind of assay: Radioligand binding competition assay (RLB). As to conditions: read-out: Ki. The gist of the method:
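Membranes from cells expressing human Y2 receptor (0.5 μg protein/well) were incubated with radioligand and serially diluted peptides in 50 mM HEPES, 5 mM MgCl2, 1 mM CaCl2, 0.2% ovalbumin, pH 7.4, for 2 h at room temperature with shaking. Bound radioactivity was collected by filtration and counted; IC50 from sigmoidal nonlinear regression.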

The next assay relates to normal NMRI mice. Kind of assay: Effect on acute food intake in normal NMRI mice. The assay is classed as in vivo. The conditions noted are these: male NMRI mice, 10 nmol/kg subcutaneously once. The gist of the method:
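A single 10 nmol/kg s.c. peptide dose was given 1 h before lights-off to male NMRI mice fasted from 6 h before the night phase (n=7-8). Intake was recorded continuously by microchip-identified HM-2 feeding channels. Values are normalized to vehicle controls (50 mM phosphate buffer pH7 with 5% Mannitol).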

Where [2] appears, read: Table 3, human 125I-PYY (1-36) 0.02 nM, Y2 receptor membranes.

Broadly, the Ki is the dissociation constant of the complex between target and ligand, obtained from inhibition or displacement.

Read-outs that look alike come from different tables or passages of the source.

With `CC(C)CC(=O)N[C@@H](C)C(=O)N1CCC[C@H]1C(=O)N[C@@H](CCC(=O)O)C(=O)N[C@@H](CCCCNC(=O)COCCOCCNC(=O)COCCOCCNC(=O)CC[C@H](NC(=O)CCCCCCCCCCCCCCCCC(=O)O)C(=O)O)C(=O)N1CCC[C@H]1C(=O)N[C@@H](CCC(=O)O)C(=O)N[C@@H](CCC(=O)O)C(=O)N[C@@H](CCC(=O)O)C(=O)N[C@@H](C)C(=O)N[C@@H](CO)C(=O)N[C@@H](CCC(=O)O)C(=O)N[C@@H](CCC(=O)O)C(=O)N[C@@H](CCC(=O)O)C(=O)N[C@@H](CC(C)C)C(=O)N[C@@H](CCC(N)=O)C(=O)N[C@@H](CCCNC(=N)N)C(=O)N[C@@H](Cc1ccc(O)cc1)C(=O)N[C@@H](Cc1ccc(O)cc1)C(=O)N[C@H](C(=O)N[C@@H](CO)C(=O)N[C@@H](CC(C)C)C(=O)N[C@@H](CCCNC(=N)N)C(=O)N[C@@H](Cc1c[nH]cn1)C(=O)N[C@@H](Cc1ccc(O)cc1)C(=O)N[C@@H](Cc1ccc(O)cc1)C(=O)N[C@@H](CC(N)=O)C(=O)N[C@@H](Cc1c[nH]c2ccccc12)C(=O)N[C@@H](CC(C)C)C(=O)N[C@H](C(=O)N[C@@H](CCCNC(=N)N)C(=O)N[C@@H](CCC(N)=O)C(=O)N[C@@H](CCCNC(=N)N)C(=O)N[C@@H](Cc1ccc(O)cc1)C(N)=O)[C@@H](C)O)C(C)C` [Compound 79, N{alpha-4}-(3-methylbutanoyl)-N{epsilon-7}-[2-(2-{2-[2-(2-{2-[(4S)-4-carboxy-4-(17-carboxyheptadecanamido)butanamido]ethoxy}ethoxy)acetamido]ethoxy}ethoxy)acetamido]-[4A,7K,9E,11E,14E,18Q,22V,28Y,30W,31L]hPYY (4-36)], the Ki in assay [1] was determined as 4.52 nM. In addition, the “Acute Food Intake 24 h [% vehicle]” value in the assay on normal NMRI mice worked out at 75 % vehicle.
Regarding `CC(C)CC(=O)N[C@@H](C)C(=O)N1CCC[C@H]1C(=O)N[C@@H](CCC(=O)O)C(=O)N[C@@H](CCCCNC(=O)COCCOCCNC(=O)COCCOCCNC(=O)CC[C@H](NC(=O)CCCCCCCCCCCCCCCCC(=O)O)C(=O)O)C(=O)N1CCC[C@H]1C(=O)N[C@@H](CCC(=O)O)C(=O)N[C@@H](CCC(=O)O)C(=O)N[C@@H](CC(=O)O)C(=O)N[C@@H](C)C(=O)N[C@@H](CO)C(=O)N1CCC[C@H]1C(=O)N[C@@H](CCC(=O)O)C(=O)N[C@@H](CCC(=O)O)C(=O)N[C@@H](CC(C)C)C(=O)N[C@@H](CCC(N)=O)C(=O)N[C@@H](CCCNC(=N)N)C(=O)N[C@@H](Cc1ccc(O)cc1)C(=O)N[C@@H](CCC(=O)O)C(=O)N[C@H](C(=O)N[C@@H](CO)C(=O)N[C@@H](CC(C)C)C(=O)N[C@@H](CCCNC(=N)N)C(=O)N[C@@H](Cc1c[nH]cn1)C(=O)N[C@@H](Cc1ccc(O)cc1)C(=O)N[C@@H](Cc1ccc(O)cc1)C(=O)N[C@@H](CC(N)=O)C(=O)N[C@@H](Cc1c[nH]c2ccccc12)C(=O)N[C@@H](CC(C)C)C(=O)N[C@H](C(=O)N[C@@H](CCCNC(=N)N)C(=O)N[C@@H](CCC(N)=O)C(=O)N[C@@H](CCCNC(=N)N)C(=O)N[C@@H](Cc1ccc(O)cc1)C(N)=O)[C@@H](C)O)C(C)C` [Compound 90, N{alpha-4}-(3-methylbutanoyl)-N{epsilon-7}-[2-(2-{2-[2-(2-{2-[(4S)-4-carboxy-4-(17-carboxyheptadecanamido)butanamido]ethoxy}ethoxy)acetamido]ethoxy}ethoxy)acetamido]-[4A,7K,9E,18Q,21E,22V,28Y,30W,31L]hPYY (4-36)], the Ki in assay [1] (setting [2]) was determined as 1.6 nM. Further, in the assay with normal NMRI mice, the “Acute Food Intake 24 h [% vehicle]” value is recorded as 70 % vehicle.
Consider `CC(C)CC(=O)N[C@@H](C)C(=O)N1CCC[C@H]1C(=O)N[C@@H](CCC(=O)O)C(=O)N[C@@H](CCCCNC(=O)COCCOCCNC(=O)COCCOCCNC(=O)CC[C@H](NC(=O)CCCCCCCCCCCCCCCCC(=O)O)C(=O)O)C(=O)N1CCC[C@H]1C(=O)N[C@@H](CCC(=O)O)C(=O)N[C@@H](CCC(=O)O)C(=O)N[C@@H](CC(=O)O)C(=O)N[C@@H](C)C(=O)N[C@H](C(=O)N1CCC[C@H]1C(=O)N[C@@H](CCC(=O)O)C(=O)N[C@@H](CCC(=O)O)C(=O)N[C@@H](CC(C)C)C(=O)N[C@@H](CCC(N)=O)C(=O)N[C@@H](CCCNC(=N)N)C(=O)N[C@@H](Cc1ccc(O)cc1)C(=O)N[C@@H](Cc1ccc(O)cc1)C(=O)N[C@H](C(=O)N[C@@H](CCC(=O)O)C(=O)N[C@@H](CC(C)C)C(=O)N[C@@H](CCCNC(=N)N)C(=O)N[C@@H](Cc1c[nH]cn1)C(=O)N[C@@H](Cc1ccc(O)cc1)C(=O)N[C@@H](Cc1ccc(O)cc1)C(=O)N[C@@H](CC(N)=O)C(=O)N[C@@H](Cc1c[nH]c2ccccc12)C(=O)N[C@@H](CC(C)C)C(=O)N[C@H](C(=O)N[C@@H](CCCNC(=N)N)C(=O)N[C@@H](CCC(N)=O)C(=O)N[C@@H](CCCNC(=N)N)C(=O)N[C@@H](Cc1ccc(O)cc1)C(N)=O)[C@@H](C)O)C(C)C)[C@@H](C)O` [Compound 101, N{alpha-4}-(3-methylbutanoyl)-N{epsilon-7}-[2-(2-{2-[2-(2-{2-[(4S)-4-carboxy-4-(17-carboxyheptadecanamido)butanamido]ethoxy}ethoxy)acetamido]ethoxy}ethoxy)acetamido]-[4A,7K,9E,13T,18Q,22V,23E,28Y,30W,31L]hPYY (4-36)], for which the Ki in assay [1] (setting [2]) came out at 3.29 nM. Moreover, the “Acute Food Intake 24 h [% vehicle]” value with normal NMRI mice stood at 63 % vehicle.
For `CC(C)CC(=O)N[C@@H](C)C(=O)N1CCC[C@H]1C(=O)N[C@@H](C)C(=O)N[C@@H](CCCCNC(=O)COCCOCCNC(=O)COCCOCCNC(=O)CC[C@H](NC(=O)CCCCCCCCCCCCCCCCC(=O)O)C(=O)O)C(=O)N1CCC[C@H]1C(=O)N[C@@H](CCC(=O)O)C(=O)N[C@@H](CCC(=O)O)C(=O)N[C@@H](CC(=O)O)C(=O)N[C@@H](C)C(=O)N[C@@H](CO)C(=O)N[C@@H](CCC(=O)O)C(=O)N[C@@H](CCC(=O)O)C(=O)N[C@@H](CCC(=O)O)C(=O)N[C@@H](CC(C)C)C(=O)N[C@@H](CCC(N)=O)C(=O)N[C@@H](CCCNC(=N)N)C(=O)N[C@@H](Cc1ccc(O)cc1)C(=O)N[C@@H](Cc1ccc(O)cc1)C(=O)N[C@H](C(=O)N[C@@H](CO)C(=O)N[C@@H](CC(C)C)C(=O)N[C@@H](CCCNC(=N)N)C(=O)N[C@@H](Cc1c[nH]cn1)C(=O)N[C@@H](Cc1ccc(O)cc1)C(=O)N[C@@H](Cc1ccc(O)cc1)C(=O)N[C@@H](CC(N)=O)C(=O)N[C@@H](Cc1c[nH]c2ccccc12)C(=O)N[C@@H](CC(C)C)C(=O)N[C@H](C(=O)N[C@@H](CCCNC(=N)N)C(=O)N[C@@H](CCC(N)=O)C(=O)N[C@@H](CCCNC(=N)N)C(=O)N[C@@H](Cc1ccc(O)cc1)C(N)=O)[C@@H](C)O)C(C)C` [Compound 103, N{alpha-4}-(3-methylbutanoyl)-N{epsilon-7}-[2-(2-{2-[2-(2-{2-[(4S)-4-carboxy-4-(17-carboxyheptadecanamido)butanamido]ethoxy}ethoxy)acetamido]ethoxy}ethoxy)acetamido]-[4A,6A,7K,9E,14E,18Q,22V,28Y,30W,31L]hPYY (4-36)] the same measures were 0.95 nM and 67 % vehicle.
For `CC(C)CC(=O)N[C@@H](C)C(=O)N1CCC[C@H]1C(=O)N[C@@H](CCC(=O)O)C(=O)N[C@@H](CCCCNC(=O)COCCOCCNC(=O)COCCOCCNC(=O)CC[C@H](NC(=O)CCCCCCCCCCCCCCCCC(=O)O)C(=O)O)C(=O)N1CCC[C@H]1C(=O)N[C@@H](CCC(=O)O)C(=O)N[C@@H](CCC(=O)O)C(=O)N[C@@H](CC(=O)O)C(=O)N[C@@H](C)C(=O)N[C@@H](CO)C(=O)N1CCC[C@H]1C(=O)N[C@@H](CCC(=O)O)C(=O)N[C@@H](CCC(=O)O)C(=O)N[C@@H](CC(C)C)C(=O)N[C@@H](CCC(N)=O)C(=O)N[C@@H](CCCNC(=N)N)C(=O)N[C@@H](Cc1ccc(O)cc1)C(=O)N[C@@H](Cc1ccc(O)cc1)C(=O)N[C@H](C(=O)N[C@@H](CCC(=O)O)C(=O)N[C@@H](CC(C)C)C(=O)N[C@@H](CCCNC(=N)N)C(=O)N[C@@H](Cc1c[nH]cn1)C(=O)N[C@@H](Cc1ccc(O)cc1)C(=O)N[C@@H](Cc1ccc(O)cc1)C(=O)N[C@@H](CC(N)=O)C(=O)N[C@@H](Cc1c[nH]c2ccccc12)C(=O)N[C@@H](CC(C)C)C(=O)N[C@H](C(=O)N[C@@H](CCCNC(=N)N)C(=O)N[C@@H](CCC(N)=O)C(=O)N[C@@H](CCCNC(=N)N)C(=O)N[C@@H](Cc1ccc(O)cc1)C(N)=O)[C@@H](C)O)C(C)C` [Compound 108, N{alpha-4}-(3-methylbutanoyl)-N{epsilon-7}-[2-(2-{2-[2-(2-{2-[(4S)-4-carboxy-4-(17-carboxyheptadecanamido)butanamido]ethoxy}ethoxy)acetamido]ethoxy}ethoxy)acetamido]-[4A,7K,9E,18Q,22V,23E,28Y,30W,31L]hPYY (4-36)], in that order: 0.99 nM and 47 % vehicle.
